This is an account of results in patent EP4644391A1, “NOVEL PHENYLQUINOLONE COMPOUND HAVING ANTIBACTERIAL AND ANTICANCER FUNCTIONS, AND PREPARATION THEREOF” (Alphamol Science Ltd (Shanghai), priority 2022, dated 2024).

Assay in all cases: In vitro anticancer activity test (MTT cell proliferation assay)
Holding throughout (type): cell-based
For orientation: Tetrazolium dyes change colour on reduction, which living cells bring about.

The subject of assay [1] is human osteosarcoma cell U2-OS. To be noted: U2OS. As for the experimental part:
(§1) The anticancer activity of the compounds was tested using an in vitro cancer cell tests. The specific test method is as follows: • 1. Cell recovery and culture method: the cryovial was taken out from the liquid nitrogen container firstly, soaked directly in 37°C warm water, and shaked from time to time to let it thaw as soon as possible. Then, the cryovial was transferred to a clean bench, and the lid was open. The cell suspension was taken into a centrifuge tube using a rubber-tipped dropper and more than 10 times the culture medium was added, mixed well, and centrifuged at 50g for 5 minutes. Then, the supernatant was discarded, complete culture medium containing 10% fetal bovine serum was added to resuspend the cells, the cells was counted, the cell density was adjusted, and then inoculated into a culture bottle. The culture bottle was placed in a cell culture incubator at 5% CO2 and 37°C. The complete culture medium was replaced once the next day and the culture was continued. • 2. Cell passaging method: adherent cells in the logarithmic growth phase were placed in a clean bench, the original culture medium was discarded, and washed three times with 1×PBS. An appropriate amount of 0.25% trypsin digestion solution was added to moisten the cells, and then the trypsin solution was aspirated. The cells were placed in a cell culture incubator at 5% CO2 and 37°C for digestion for a suitable time, and observed under a microscope. When 90% of the cells become round, the cells were moved immediately to the clean bench and complete culture medium was added to terminate digestion. Then, the cells were dislodged by pipetting up and down with a rubber-tipped dropper to single cells. The cells were counted, and the cell density was adjusted. The cells were inoculated into a suitable culture bottle or dish, added enough complete culture medium, and placed in a cell culture incubator at 5% CO2 and 37°C for static culture. For suspension cells in the logarithmic phase, the original culture medium was directly centrifuged at 50g for 5 minutes, the supernatant was discarded, and the cells were washed once with PBS and centrifuged. After discarding the supernatant, the complete culture medium was added and the cells were dispersed using a rubber-tipped dropper. The cells are counted, and the cell density was adjusted. The cells were inoculated into appropriate culture bottles or culture dishes, and sufficient complete culture medium was added, and the cells were cultured in a cell culture incubator at 5% CO2 and 37°C. • 3. Cell proliferation assay: cells in good state in logarithmic phase were taken and appropriate amount of the cells was inoculated into 96-well plates according to the cell passage treatment method, with each well containing 180 µL complete medium. After the cells growth was recovered and the number of cells in each well is 5000±500, a drug was added for treatment. After drug treatment during the experimental time, MTT solution with a final concentration of 0.5 mg/mL was added to each well, and placed in a cell culture incubator at 5% CO2 and 37°C to allow a fully reaction of MTT with cells. After 4 hours, the solution in the 96-well plate was discarded, 100 µL of DMSO was added, and shaked to dissolve the formazan precipitated at the bottom of the plate, and the absorbance value of samples was detected at a wavelength of 570 nm using a microplate reader. Calculation method of cell viability rate: Viability rate = A sample group÷A control group × 100% [formula] • 4. Cell photography step: cells in good state in logarithmic phase were taken and an appropriate amount of cells was inoculated into 96-well plates according to the cell passage treatment method, with each well containing 180 µL complete medium. After the cells growth was recovered and the number of cells in each well is 5000 ± 500, a drug was added for treatment. […]

In assay [2] the test system is human malignant melanoma cell A375. The note with it: A-375. How it is done: as §1
Assay [3] has as its system human liver cancer cell HepG2. As for the experimental part: as §1
For assay [4], the system named is human Burkitt's lymphoma cell Raji. How it is done: as §1
The test system of assay [5] is human prostate cancer cell PC-3. As for the experimental part:
as §1

Assay [6] concerns human gastric cancer cell MGC-803. As for the experimental part:
as §1

Assay [7] deals with human breast cancer cell MFM223. The note with it: MFM-223. As for the experimental part: as §1
The test system of a further assay is Hela. To be noted: Homo sapiens. As for the experimental part:
as §1

The subject of assay [8] is pancreatic cancer cell PNAC-1. How it is done: as §1
Assay [9] relates to human non-small cell lung cancer cell A549. How it is done: as §1
The test system of assay [10] is human colon cancer cell HCT 116. As for the experimental part: as §1
The test system of a further assay is human glioma cell SNB-19. As for the experimental part: as §1

Molecules are shown by their SMILES. Bounds are passed on as bounds.

The IC50 is the midpoint of a concentration-inhibition curve. Broadly, the inhibition is the share of the control response that was lost under treatment. Read a high inhibition as a strong effect.

Take `O=C(O)c1cn(C2CC2)c2cc(N3CCNCC3)c(F)cc2c1=O` [Ciprofloxacin]: the half-maximal inhibitory concentration (IC50) in [1], in [2], in [3], in assay [4], in [5] and in assay [6] was > 100 µM in each case. The IC50 (in assay [7]; in the assay on Hela; in assay [8]; in assay [9]; in assay [10]; with human glioma cell SNB-19) was > 100 µM throughout.
Take `O=C(O)c1cn(C2CC2)c2c(Cl)c(-c3ccc(S(=O)(=O)NCCCC(F)(F)F)nc3)c(F)cc2c1=O` [Example 29, 8-chloro-1-cyclopropyl-6-fluoro-4-oxo-7-(6-(N-(4,4,4-trifluorobutyl)sulfamoyl)pyridin-3-yl)-1,4-dihydroquinolin-3-carboxylic acid]: the IC50 in assay [1], in assay [2], in [3], in assay [4], in [5] and in [6] was 1 to 10 µM in each case. Also, the IC50 (in [7]; in the assay with Hela; in assay [8]; in [9]; in [10]; in the assay on human glioma cell SNB-19) was 1 to 10 µM in each case. In addition, in the assay with Hela (average proliferation inhibition rate at the dosage of 40 µM), the inhibition at 40 µM is ≥ 50%.
Turning to `CCN(CC)CCNC(=O)c1c(C)[nH]c(/C=C2\C(=O)Nc3ccc(F)cc32)c1C` [Sunitinib], the IC50 in assay [1] is 4.7 ± 1.1 µM; in [2], 19.2 ± 4.6 µM; in [3], 9.6 ± 2.1 µM; in assay [4] it was 20.3 ± 2 µM; in assay [5], 14.7 ± 6.6 µM; in [6] it was 17.5 ± 2.4 µM. For the same compound, the IC50 was determined as 10.2 ± 3.8 µM in assay [7]; 12 ± 2 µM with Hela; 22.4 ± 5.2 µM in assay [8]; 12.9 ± 10.2 µM in assay [9]; 20.7 ± 4.6 µM in [10]; 6.5 ± 1.2 µM with human glioma cell SNB-19.
